Measured values: the supplement of paper PMC11451515

Test system: P12-Ichikawa
Experiment: cell viability relative to DMSO control; higher = less cytotoxic
Conditions: 48 h
Procedure, shortened: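 Cells were incubated for 48 h at 37°C before CellTiter-Glo One luminescence was read. The cells were NOMO1 or SEM (500 cells/well) or P12-Ichikawa (1000 cells/well) leukemia cells, adapted for at least four passages in each medium and seeded in 1536-well plates (5 μl). Dosing used library compounds in DMSO applied by pin over 11 threefold points, 47 μM to 0.79 nM. Viability is the per-plate percentage of DMSO wells, with cell-free wells as background.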

[1] = HPLM + 10% dialyzed FBS, 0.000781 µM
[2] = HPLM + 10% dialyzed FBS, 0.00234 µM
[3] = HPLM + 10% dialyzed FBS, 0.00702 µM
[4] = HPLM + 10% dialyzed FBS, 0.0211 µM
[5] = HPLM + 10% dialyzed FBS, 0.0632 µM
[6] = HPLM + 10% dialyzed FBS, 0.19 µM
[7] = HPLM + 10% dialyzed FBS, 0.569 µM
[8] = HPLM + 10% dialyzed FBS, 1.71 µM
[9] = HPLM + 10% dialyzed FBS, 5.12 µM
[10] = HPLM + 10% dialyzed FBS, 15.4 µM
[11] = HPLM + 10% dialyzed FBS, 46.1 µM
[12] = RPMI 5 mM glucose + 10% FBS, 0.000781 µM
[13] = RPMI 5 mM glucose + 10% FBS, 0.00234 µM
[14] = RPMI 5 mM glucose + 10% FBS, 0.00702 µM
[15] = RPMI 5 mM glucose + 10% FBS, 0.0211 µM
[16] = RPMI 5 mM glucose + 10% FBS, 0.0632 µM
[17] = RPMI 5 mM glucose + 10% FBS, 0.19 µM
[18] = RPMI 5 mM glucose + 10% FBS, 0.569 µM
[19] = RPMI 5 mM glucose + 10% FBS, 1.71 µM
[20] = RPMI 5 mM glucose + 10% FBS, 5.12 µM
[21] = RPMI 5 mM glucose + 10% FBS, 15.4 µM
[22] = RPMI 5 mM glucose + 10% FBS, 46.1 µM
[23] = RPMI 5 mM glucose + 10% dialyzed FBS, 0.000781 µM
[24] = RPMI 5 mM glucose + 10% dialyzed FBS, 0.00234 µM
[25] = RPMI 5 mM glucose + 10% dialyzed FBS, 0.00702 µM
[26] = RPMI 5 mM glucose + 10% dialyzed FBS, 0.0211 µM
[27] = RPMI 5 mM glucose + 10% dialyzed FBS, 0.0632 µM
[28] = RPMI 5 mM glucose + 10% dialyzed FBS, 0.19 µM
[29] = RPMI 5 mM glucose + 10% dialyzed FBS, 0.569 µM
[30] = RPMI 5 mM glucose + 10% dialyzed FBS, 1.71 µM
[31] = RPMI 5 mM glucose + 10% dialyzed FBS, 5.12 µM
[32] = RPMI 5 mM glucose + 10% dialyzed FBS, 15.4 µM
[33] = RPMI 5 mM glucose + 10% dialyzed FBS, 46.1 µM

Structure (SMILES) | cell viability [1] | cell viability [2] | cell viability [3] | cell viability [4] | cell viability [5] | cell viability [6] | cell viability [7] | cell viability [8] | cell viability [9] | cell viability [10] | cell viability [11] | cell viability [12] | cell viability [13] | cell viability [14] | cell viability [15] | cell viability [16] | cell viability [17] | cell viability [18] | cell viability [19] | cell viability [20] | cell viability [21] | cell viability [22] | cell viability [23] | cell viability [24] | cell viability [25] | cell viability [26] | cell viability [27] | cell viability [28] | cell viability [29] | cell viability [30] | cell viability [31] | cell viability [32] | cell viability [33]
Cc1nc(C(=O)NCC(=O)O)c(O)c2ccc(Oc3ccccc3)cc12 | 111% | 97.3% | 107% | 105% | 113% | 91.4% | 98.4% | 99.5% | 94.8% | 102% | 98.7% | 107% | 111% | 115% | 105% | 110% | 102% | 110% | 101% | 103% | 99.2% | 85.5% | 99.4% | 101% | 102% | 104% | 101% | 98.8% | 101% | 94.8% | 96.9% | 93.6% | 77%
CC[C@@H](C)[C@H](NC(=O)[C@H](CC1CCCCC1)NC(=O)c1ccno1)C(=O)N1CCC2(CCc3ccccc32)CC1 | 94% | 89.4% | 92.7% | 88.9% | 95% | 94.1% | 75.8% | 80.8% | 89.2% | 78.9% | 83.3% | 79% | 81.5% | 101% | 88.7% | 89.8% | 85.9% | 64.5% | 71.9% | 99.8% | 70.1% | 74.6% | 84.3% | 89.3% | 83.2% | 81.4% | 77.1% | 82.2% | 79.6% | 82% | 84.6% | 76% | 77%
OC[C@H]1O[C@H](C[C@@H]1O)N2\C=C(\I)C(=O)NC2=O | 113% | 114% | 120% | 118% | 115% | 124% | 119% | 115% | 98.2% | 64.4% | 58.3% | 110% | 114% | 124% | 121% | 129% | 128% | 132% | 123% | 115% | 106% | 96.7% | 118% | 114% | 108% | 119% | 114% | 131% | 127% | 115% | 114% | 114% | 110%
